Laboratory results as given in patent US20260092039A1, “DUAL INHIBITORS FOR THE TREATMENT OF ALZHEIMER'S DISEASE” (UNIVERSITAT DE BARCELONA, priority 2023, published 2026).

Assays:
[1] = target: T1, human recombinant glutaminyl cyclase (hQC) (Homo sapiens, UniProt Q16769); assay: In vitro determination of human QC inhibitory activity (SensoLyte Green Glutaminyl Cyclase Activity Assay Kit); format: biochemical
T1 construct: purchased Eurogentec AS-72230
Procedure: Basic statistical analysis was performed.

[2] = test system: primary mouse cortical neurons; assay: LDH toxicity assay in mouse primary cortical neurons; format: cell-based
Procedure: The compounds were diluted from 250 mM DMSO stocks to a 100 mM stock in DMSO. Thereafter, compounds were diluted to 100 μM, 20 μM, 5 μM, 1 μM, 0.2 μM, 0.05 μM, 0.01 μM and 0.001 μM dilution in medium, so that the final DMSO concentration in the well was 0.1% for all conditions. Stock solutions were stored at −20° C. until further use.
Isolation and treatment of primary mouse cortical neurons: Primary cortical neurons were prepared from timed pregnant wild-type C57BL/6JRccHsd mice at E16.5-E18. Animals were sacrificed by carbon dioxide and embryos were dissected in Calcium and Magnesium free Hanks Balanced Salt Solution (CMF-HBSS) containing 15 mM HEPES and 10 mM NaHCO3, pH 7.2. Embryos were decapitated, skin and skull gently removed and cortical hemispheres were separated. After removing meninges and brain stem, the cortex was isolated, chopped with a sterile razor blade in Chop solution (Hibernate-E without Calcium containing 2% B-27) and digested in 2 mg/mL papain (Worthington) dissolved in Hibernate-E without Calcium for 30 min at 30° C. Cortices were triturated for 10-15 times with a fire-polished silanized Pasteur pipette in Hibernate-E without Calcium containing 2% B-27, 0.01% DNaseI, 1 mg/mL BSA, and 1 mg/mL Ovomucoid Inhibitor. Undispersed pieces were allowed to settle by gravity for 1 min and the supernatant was centrifuged for 3 min at 228 g. The pellet was resuspended in Hibernate-E containing 2% B-27, 0.01% DNaseI, 1 mg/mL BSA, 1 mg/mL Ovomucoid Inhibitor and diluted with Hibernate-E containing 2% B-27. After the second centrifugation step (3 min at 228 g), the pellet was resuspended in nutrition medium without glutamate (Neurobasal, 2% B-27, 0.5 mM glutamine, 1% Penicillin-Streptomycin). Cells were counted in a hemacytometer and seeded in nutrition medium on poly-D-lysine pre-coated plates. Cells were cultured at 37° C.; 95% humidity and 5% CO2. All wells were handled the same way. On DIV8, cells were treated with the compounds for the evaluation of the neurotoxic effect. On DIV9, the MTT and LDH assays were performed as described below. The experiments were performed in six technical replicates for all groups per experiment.
LDH toxicity assay: Supernatants of cells were subjected to the lactate dehydrogenase (LDH) toxicity assay by using the Cytotoxicity Detection Kit (Roche Diagnostics, Cat. No: 11 644 793 001). Seventy μL of cell culture supernatant was transferred to clear 96-well plates. Seventy μL freshly prepared reaction mixture was added to each well and the mixture was incubated for 20 to 30 min at room temperature protected from light. Absorbance was measured at 492 nm and 620 nm as reference wavelength. Cell death was expressed as optical density (OD). Values were calculated as percent of control values (vehicle control).

LPS stimulated BV2 cells = assay: Cytokine release in LPS stimulated BV2 cells; format: cell-based, murine; settings: 24 h
Procedure: Compounds of formula I were diluted from 250 mM DMSO stock solutions to a 10 mM stock in DMSO. Thereafter, the compounds were diluted to 10 μM and 1 μM in medium, so that the final DMSO concentration in the well was 0.1% for all conditions. The stock solutions were stored at −20° C. until further use.
Culture and treatment of BV-2 cells: The murine microglial cell line BV-2 was cultivated in Dulbecco's modified eagle medium (DMEM) supplemented with 10% fetal calf serum (FCS), 1% penicillin/streptomycin and 2 mM L-glutamine (culture medium). For the lipopolysaccharide (LPS) stimulation assay, 20,000 BV-2 cells per well (uncoated 96 well plates) were plated out. After 48 h, the medium was changed to treatment medium (DMEM, 5% FCS, 2 mM L-glutamine) and cells were maintained in treatment medium for the remaining culture period. After changing cells to treatment medium, the compounds were administered 1 h before LPS stimulation (Sigma-Aldrich; L6529; 1 mg/mL stock in ddH2O, final concentration in well: 100 ng/mL (dilutions in medium)). Cells treated with vehicle and LPS alone served as controls. All wells were handled the same way. After 24 h of stimulation, cell supernatants were collected for the cytokine measurement. The experiment was performed in n=6 technical replicates for all groups.
Cytokine measurement: The samples were diluted 1:2 and analysed for 4 cytokines (IL-1β, IL-2, IL-6, TNF-α) with a commercially available immunosorbent assay kit (U-plex, K15069L, Mesoscale Discovery) according to the instructions of the manufacturer. In brief, 25 μL of diluent 41 and 25 μL sample or respective standard were placed into wells of the pre-coated U-plex plate and incubated on an orbital shaker at room temperature for 1 h. Plates were washed 3 times with phosphate buffered saline with 0.05% Tween 20 (PBST) and thereafter 50 μL of detection antibody were added. Plates were again incubated on an orbital shaker at room temperature for 1 h. After another 3 washing steps with PBST, 150 μL of Mesoscale Discovery (MSD) GOLD Read Buffer were added and plates were read on Sector imager. Data were evaluated in comparison to calibration curves provided in the kit.
Statistics: Basic statistical analysis was performed. Group differences were evaluated by e.g. one-way ANOVA followed by a posthoc test, if appropriate.

T1 sequence (Q16769 29-361): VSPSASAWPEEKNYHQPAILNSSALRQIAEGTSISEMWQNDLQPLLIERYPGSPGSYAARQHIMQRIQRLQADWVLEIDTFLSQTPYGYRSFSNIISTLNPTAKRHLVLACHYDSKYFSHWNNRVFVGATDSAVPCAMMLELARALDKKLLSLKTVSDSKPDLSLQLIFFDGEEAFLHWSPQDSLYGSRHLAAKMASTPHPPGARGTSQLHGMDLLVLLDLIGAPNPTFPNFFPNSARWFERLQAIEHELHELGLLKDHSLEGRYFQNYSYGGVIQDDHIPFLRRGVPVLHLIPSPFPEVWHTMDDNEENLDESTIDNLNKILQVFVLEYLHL

| Compound | IC50 [1] [nM] | LDH toxicity assay (cell death), primary cortical neurons ([2]; compound 0.001 μM) | LDH toxicity assay (cell death), primary cortical neurons ([2]; compound 0.01 μM) | LDH toxicity assay (cell death), primary cortical neurons ([2]; compound 0.05 μM) | LDH toxicity assay (cell death), primary cortical neurons ([2]; compound 0.2 μM) | LDH toxicity assay (cell death), primary cortical neurons ([2]; compound 1 μM) | LDH toxicity assay (cell death), primary cortical neurons ([2]; compound 5 μM) | LDH toxicity assay (cell death), primary cortical neurons ([2]; compound 20 μM) | LDH toxicity assay (cell death), primary cortical neurons ([2]; compound 100 μM) | IL-1β level (LPS stimulated BV2 cells; compound 1 μM) | IL-2 level (LPS stimulated BV2 cells; compound 1 μM) | IL-6 level (LPS stimulated BV2 cells; compound 1 μM) | TNF-α level (LPS stimulated BV2 cells; compound 1 μM) | IL-1β level (LPS stimulated BV2 cells; compound 10 μM) | IL-2 level (LPS stimulated BV2 cells; compound 10 μM) | IL-6 level (LPS stimulated BV2 cells; compound 10 μM) | TNF-α level (LPS stimulated BV2 cells; compound 10 μM) |
| --- | --- | --- | --- | --- | --- | --- | --- | --- | --- | --- | --- | --- | --- | --- | --- | --- | --- |
| CCC12CC3CC(C1)CC(NC(=O)NCCCn1cncc1C)(C3)C2 [Id, 1-(3-ethyladamantan-1-yl)-3-[3-(5-methyl-1H-imidazol-1-yl)propyl]urea] | 570 | 114 % of vehicle control | 104 % of vehicle control | 100 % of vehicle control | 100 % of vehicle control | 99 % of vehicle control | 102 % of vehicle control | 109 % of vehicle control | 157 % of vehicle control | 46 % of vehicle control | 38 % of vehicle control | 34 % of vehicle control | 98 % of vehicle control | 73 % of vehicle control | 26 % of vehicle control | 24 % of vehicle control | 84 % of vehicle control |
| Cc1cncn1CCCNC(=O)NC1C2CC3CC(C2)CC1C3 (centres unmarked) [Ii, 1-(adamantan-2-yl)-3-[3-(5-methyl-1H-imidazol-1-yl)propyl]urea] | 189 | 99 % of vehicle control | 97 % of vehicle control | 97 % of vehicle control | 94 % of vehicle control | 101 % of vehicle control | 100 % of vehicle control | 97 % of vehicle control | 113 % of vehicle control | 86 % of vehicle control | 66 % of vehicle control | 63 % of vehicle control | 104 % of vehicle control | 125 % of vehicle control | 48 % of vehicle control | 62 % of vehicle control | 103 % of vehicle control |
| Cc1cncn1CCCNC(=O)NC12CC3CC(CC(C)(C3)O1)C2 [Ir, 1-[3-(5-methyl-1H-imidazol-1-yl)propyl]-3-(3-methyl-2-oxaadamantan-1-yl)urea] | 139 | 100 % of vehicle control | 100 % of vehicle control | 101 % of vehicle control | 101 % of vehicle control | 100 % of vehicle control | 100 % of vehicle control | 101 % of vehicle control | 107 % of vehicle control | 77 % of vehicle control | 52 % of vehicle control | 37 % of vehicle control | 107 % of vehicle control | 94 % of vehicle control | 37 % of vehicle control | 38 % of vehicle control | 102 % of vehicle control |
| CCC12CC3CC(C1)CC(NC(=O)NCCCn1cncc1C)(C3)O2 [Is, 1-(3-ethyl-2-oxaadamantan-1-yl)-3-[3-(5-methyl-1H-imidazol-1-yl)propyl]urea] | 96 | 96 % of vehicle control | 97 % of vehicle control | 99 % of vehicle control | 98 % of vehicle control | 107 % of vehicle control | 102 % of vehicle control | 113 % of vehicle control | 107 % of vehicle control | 95 % of vehicle control | 66 % of vehicle control | 65 % of vehicle control | 104 % of vehicle control | 124 % of vehicle control | 48 % of vehicle control | 64 % of vehicle control | 104 % of vehicle control |
